Experiments:
[1] = molecular target: BDNF/NT-3 growth factors receptor (Homo sapiens) (UniProt Q16620); test: Inhibition of TRKB (unknown origin) at 0.5 uM relative to control
[2] = molecular target: T1, Homeodomain-interacting protein kinase 4 (Homo sapiens, UniProt Q8NE63); test: Inhibition of HIPK4 (unknown origin)
T1 sequence (Q8NE63 whole entry): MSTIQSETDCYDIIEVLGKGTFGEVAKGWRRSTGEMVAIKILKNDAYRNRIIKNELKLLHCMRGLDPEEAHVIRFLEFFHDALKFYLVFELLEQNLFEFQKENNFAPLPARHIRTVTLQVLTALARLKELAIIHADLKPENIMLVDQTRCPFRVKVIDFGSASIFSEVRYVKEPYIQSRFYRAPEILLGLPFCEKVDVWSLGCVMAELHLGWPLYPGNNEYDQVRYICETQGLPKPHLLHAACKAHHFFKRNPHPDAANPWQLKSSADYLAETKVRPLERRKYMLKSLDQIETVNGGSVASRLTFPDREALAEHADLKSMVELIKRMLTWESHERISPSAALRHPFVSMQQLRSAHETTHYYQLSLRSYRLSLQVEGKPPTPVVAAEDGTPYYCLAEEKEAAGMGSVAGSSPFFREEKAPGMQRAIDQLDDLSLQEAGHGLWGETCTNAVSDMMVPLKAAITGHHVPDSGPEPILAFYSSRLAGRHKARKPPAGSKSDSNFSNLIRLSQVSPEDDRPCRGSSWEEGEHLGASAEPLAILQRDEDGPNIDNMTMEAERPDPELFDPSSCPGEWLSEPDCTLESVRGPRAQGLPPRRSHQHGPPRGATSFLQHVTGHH

[3] = molecular target: Serine/threonine-protein kinase 10 (Homo sapiens) (UniProt O94804); test: Inhibition of LOK (unknown origin) at 0.5 uM relative to control
[4] = molecular target: T2, Homeodomain-interacting protein kinase 4 (Homo sapiens) (UniProt Q8NE63); test: Inhibition of HIPK4 (unknown origin) at 0.5 uM relative to control
T2 sequence (whole entry): T1 sequence (Q8NE63 whole entry)

[5] = molecular target: Tyrosine-protein kinase Lck (Homo sapiens) (UniProt P06239); test: Inhibition of LCK (unknown origin) at 0.5 uM relative to control
[6] = molecular target: T3, Tyrosine-protein kinase receptor TYRO3 (Homo sapiens) (UniProt Q06418); test: Inhibition of TYRO3 (unknown origin) at 0.5 uM relative to control
T3 sequence (whole entry): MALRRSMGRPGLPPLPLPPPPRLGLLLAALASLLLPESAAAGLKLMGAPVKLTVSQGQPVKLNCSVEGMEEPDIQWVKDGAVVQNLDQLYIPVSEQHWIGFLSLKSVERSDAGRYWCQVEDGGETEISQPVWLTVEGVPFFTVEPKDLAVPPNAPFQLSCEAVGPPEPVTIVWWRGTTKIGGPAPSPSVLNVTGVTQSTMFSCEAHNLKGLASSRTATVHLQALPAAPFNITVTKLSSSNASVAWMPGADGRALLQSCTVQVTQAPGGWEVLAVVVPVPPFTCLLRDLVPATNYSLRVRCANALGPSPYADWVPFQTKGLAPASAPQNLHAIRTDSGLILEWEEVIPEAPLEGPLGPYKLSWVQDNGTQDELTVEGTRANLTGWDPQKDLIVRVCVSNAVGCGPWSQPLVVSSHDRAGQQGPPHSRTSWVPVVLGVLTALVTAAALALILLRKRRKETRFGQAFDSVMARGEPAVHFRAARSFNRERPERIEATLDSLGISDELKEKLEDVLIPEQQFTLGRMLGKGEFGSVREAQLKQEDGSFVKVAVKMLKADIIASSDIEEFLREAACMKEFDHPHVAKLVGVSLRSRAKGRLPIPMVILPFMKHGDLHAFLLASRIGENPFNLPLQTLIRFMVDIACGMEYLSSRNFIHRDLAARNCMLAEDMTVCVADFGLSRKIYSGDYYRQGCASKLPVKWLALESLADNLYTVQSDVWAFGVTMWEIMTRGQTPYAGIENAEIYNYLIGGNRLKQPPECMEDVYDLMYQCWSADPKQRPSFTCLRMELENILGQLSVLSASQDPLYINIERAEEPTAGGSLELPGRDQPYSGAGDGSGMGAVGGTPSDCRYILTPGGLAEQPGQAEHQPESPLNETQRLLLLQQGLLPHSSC

[7] = molecular target: T4, Ephrin type-B receptor 2 (Homo sapiens) (UniProt P29323); test: Inhibition of EPHB2 (unknown origin) at 0.5 uM relative to control
T4 sequence (whole entry): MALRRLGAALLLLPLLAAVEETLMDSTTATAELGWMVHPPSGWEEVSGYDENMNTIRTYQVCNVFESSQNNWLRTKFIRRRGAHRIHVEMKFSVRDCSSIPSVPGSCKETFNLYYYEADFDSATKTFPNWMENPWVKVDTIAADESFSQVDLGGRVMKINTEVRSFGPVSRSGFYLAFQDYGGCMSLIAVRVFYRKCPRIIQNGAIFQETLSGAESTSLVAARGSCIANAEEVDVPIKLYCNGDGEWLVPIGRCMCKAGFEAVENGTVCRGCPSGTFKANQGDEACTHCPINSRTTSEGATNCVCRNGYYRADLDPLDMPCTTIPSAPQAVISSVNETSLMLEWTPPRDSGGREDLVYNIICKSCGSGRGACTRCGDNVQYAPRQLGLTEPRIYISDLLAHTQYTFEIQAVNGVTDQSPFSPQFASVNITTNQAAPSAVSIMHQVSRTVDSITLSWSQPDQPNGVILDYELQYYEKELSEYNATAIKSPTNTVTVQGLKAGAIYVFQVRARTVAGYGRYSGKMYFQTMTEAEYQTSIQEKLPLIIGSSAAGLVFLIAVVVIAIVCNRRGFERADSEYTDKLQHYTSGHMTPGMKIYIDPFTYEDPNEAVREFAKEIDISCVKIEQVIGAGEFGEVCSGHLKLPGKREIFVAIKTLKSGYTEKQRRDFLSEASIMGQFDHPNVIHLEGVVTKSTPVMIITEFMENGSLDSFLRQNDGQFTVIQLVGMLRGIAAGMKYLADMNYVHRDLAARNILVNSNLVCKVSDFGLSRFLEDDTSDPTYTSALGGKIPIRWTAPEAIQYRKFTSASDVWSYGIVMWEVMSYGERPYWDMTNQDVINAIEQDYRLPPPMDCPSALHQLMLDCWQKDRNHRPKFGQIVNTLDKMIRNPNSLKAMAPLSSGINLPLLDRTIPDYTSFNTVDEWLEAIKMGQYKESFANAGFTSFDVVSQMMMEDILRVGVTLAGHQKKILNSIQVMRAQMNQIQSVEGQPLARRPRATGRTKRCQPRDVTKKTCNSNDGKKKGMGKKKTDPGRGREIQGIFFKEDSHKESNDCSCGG

Chain of Tyrosine-protein kinase Lck (Homo sapiens) (P06239 2-509 limits assumed): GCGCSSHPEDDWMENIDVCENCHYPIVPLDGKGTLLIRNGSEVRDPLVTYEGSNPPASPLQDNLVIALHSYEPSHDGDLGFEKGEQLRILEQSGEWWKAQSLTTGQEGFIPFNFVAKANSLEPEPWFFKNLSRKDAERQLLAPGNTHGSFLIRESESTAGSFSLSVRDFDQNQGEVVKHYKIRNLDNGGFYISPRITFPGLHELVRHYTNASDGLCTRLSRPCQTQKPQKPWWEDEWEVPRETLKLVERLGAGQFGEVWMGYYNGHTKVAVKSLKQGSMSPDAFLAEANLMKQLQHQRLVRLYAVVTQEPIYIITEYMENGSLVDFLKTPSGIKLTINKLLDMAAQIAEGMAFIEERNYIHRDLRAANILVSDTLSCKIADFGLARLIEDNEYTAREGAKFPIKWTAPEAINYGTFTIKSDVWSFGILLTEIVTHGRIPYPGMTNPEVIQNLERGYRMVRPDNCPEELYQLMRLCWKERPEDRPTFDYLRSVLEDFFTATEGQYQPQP
Chain of Serine/threonine-protein kinase 10 (Homo sapiens) (O94804 whole entry, looked up): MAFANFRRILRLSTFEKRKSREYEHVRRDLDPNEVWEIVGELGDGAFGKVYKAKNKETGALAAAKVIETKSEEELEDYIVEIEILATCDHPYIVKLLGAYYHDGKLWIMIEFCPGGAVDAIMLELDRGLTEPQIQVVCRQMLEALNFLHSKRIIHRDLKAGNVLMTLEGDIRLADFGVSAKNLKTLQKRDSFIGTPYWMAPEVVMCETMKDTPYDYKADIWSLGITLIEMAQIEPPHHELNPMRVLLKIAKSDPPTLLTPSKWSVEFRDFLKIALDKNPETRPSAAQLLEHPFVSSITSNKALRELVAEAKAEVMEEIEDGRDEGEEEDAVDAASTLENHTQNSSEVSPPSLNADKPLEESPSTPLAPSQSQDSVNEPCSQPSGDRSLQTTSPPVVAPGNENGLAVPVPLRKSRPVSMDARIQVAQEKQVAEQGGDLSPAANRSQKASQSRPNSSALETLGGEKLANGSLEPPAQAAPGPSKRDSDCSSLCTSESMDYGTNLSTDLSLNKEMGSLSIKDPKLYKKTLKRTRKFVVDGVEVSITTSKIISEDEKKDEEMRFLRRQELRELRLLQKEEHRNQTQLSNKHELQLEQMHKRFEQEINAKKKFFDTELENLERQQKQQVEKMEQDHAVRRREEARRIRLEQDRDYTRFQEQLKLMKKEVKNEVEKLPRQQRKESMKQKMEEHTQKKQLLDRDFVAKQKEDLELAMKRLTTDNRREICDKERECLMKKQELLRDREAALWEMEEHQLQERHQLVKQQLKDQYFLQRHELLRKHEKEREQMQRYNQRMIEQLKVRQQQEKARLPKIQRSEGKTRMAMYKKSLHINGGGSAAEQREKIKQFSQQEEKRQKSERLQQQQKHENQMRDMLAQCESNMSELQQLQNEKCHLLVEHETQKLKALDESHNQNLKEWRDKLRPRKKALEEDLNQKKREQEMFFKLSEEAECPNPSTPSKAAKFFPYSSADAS
Chain of BDNF/NT-3 growth factors receptor (Homo sapiens) (Q16620 32-822 limits assumed): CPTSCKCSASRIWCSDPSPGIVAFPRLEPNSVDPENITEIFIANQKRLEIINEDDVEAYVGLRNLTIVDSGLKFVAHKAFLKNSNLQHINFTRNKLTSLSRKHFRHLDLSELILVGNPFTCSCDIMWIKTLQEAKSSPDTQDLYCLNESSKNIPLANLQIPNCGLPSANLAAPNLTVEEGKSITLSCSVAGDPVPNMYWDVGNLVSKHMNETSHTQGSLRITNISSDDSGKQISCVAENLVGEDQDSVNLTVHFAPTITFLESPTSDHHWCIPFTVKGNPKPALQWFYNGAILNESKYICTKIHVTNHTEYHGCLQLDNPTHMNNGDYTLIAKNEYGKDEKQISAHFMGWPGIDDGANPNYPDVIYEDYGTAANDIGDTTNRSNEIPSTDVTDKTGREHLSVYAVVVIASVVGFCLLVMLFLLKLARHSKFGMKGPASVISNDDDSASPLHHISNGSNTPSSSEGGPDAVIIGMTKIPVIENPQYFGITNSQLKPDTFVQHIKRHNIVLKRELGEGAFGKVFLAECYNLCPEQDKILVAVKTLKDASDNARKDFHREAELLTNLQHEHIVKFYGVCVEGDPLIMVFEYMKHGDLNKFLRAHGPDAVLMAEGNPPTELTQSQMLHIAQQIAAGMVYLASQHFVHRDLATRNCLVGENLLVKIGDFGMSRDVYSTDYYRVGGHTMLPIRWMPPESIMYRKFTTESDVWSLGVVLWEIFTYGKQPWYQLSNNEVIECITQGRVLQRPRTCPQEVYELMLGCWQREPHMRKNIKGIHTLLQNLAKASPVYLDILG

SMILES	inhibition [1]	IC50 [2]	inhibition [3]	inhibition [4]	inhibition [5]	inhibition [6]	inhibition [7]
CNC(=O)c1cc(Oc2ccc(NC(=O)c3nc(SC)n(CCN(C)C)c3-c3ccc(F)cc3)cc2)ccn1	51%	23 nM	47%	91%	28%	52%	–
CNC(=O)c1cc(Oc2ccc(NC(=O)c3nc(SC)oc3-c3ccc(F)cc3)cc2)ccn1	40%	3.3 nM	66%	99%	77%	82%	48%
CNC(=O)c1cc(Oc2ccc(NC(=O)c3nc(NC)sc3-c3ccc(F)cc3)cc2)ccn1	71%	5.2 nM	50%	96%	49%	59%	51%
CNC(=O)c1cc(Oc2ccc(NC(=O)c3n[nH]nc3-c3ccc(F)cc3)cc2)ccn1	40%	49 nM	26%	84%	–	–	35%
CNC(=O)c1cc(Oc2ccc(NC(=O)c3nc(C(F)(F)F)sc3-c3ccc(F)cc3)cc2)ccn1	–	9.6 nM	58%	95%	58%	65%	–
CNC(=O)c1cc(Oc2ccc(NC(=O)c3nc(SC)[nH]c3-c3ccc(F)cc3)cc2)ccn1	83%	19 nM	93%	97%	84%	87%	93%
CNC(=O)c1cc(Oc2ccc(NC(=O)c3nc(SC)oc3-c3ccc(F)cc3)cc2F)ccn1	36%	2.8 nM	55%	98%	71%	70%	39%
CSc1nc(C(=O)Nc2ccc(Oc3cc4cnn(C)c4cc3Br)cc2)c(-c2ccc(F)cc2)o1	–	32 nM	36%	87%	–	–	–
CNC(=O)c1cc(Oc2ccc(NC(=O)c3nc(S(C)(=O)=O)sc3-c3ccc(F)cc3)cc2)ccn1	–	5.1 nM	–	96%	–	70%	27%
